Results on eight molecules are retold here after ChEMBL document CHEMBL1201862, “PubChem BioAssay data set” (2004).

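Cells were grown in 96-well plates and exposed to each compound for 48 hours at five concentrations; endpoints were interpolated linearly between bracketing concentrations, or set to the highest concentration if not reached. GI50 is the concentration that inhibits growth by half.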 Calls of active or inactive are those of the source. Cut-off read from the data, not from the text of the source: active = GI50 up to about 1.1 µM and inactive = higher.

What all share (experiment): growth of human tumour cells (NCI), 48 h
Experiment [1] concerns A498.
In experiment [2] the test system is A549.
Experiment [3] relates to CAKI-1.
Experiment [4] relates to HCC 2998.
Experiment [5] relates to HCT-116.
For experiment [6], the system named is HOP-92.
Experiment [7] concerns Hs-578T.
Experiment [8] deals with Malme-3M.
For experiment [9], the system named is NCI-H522.
Experiment [10] relates to OVCAR-8.
Experiment [11] relates to PC-3.
Experiment [12] relates to RPMI-8226.
Experiment [13] has as its system SF-268.
Experiment [14] relates to SK-MEL-28.
The subject of experiment [15] is SK-MEL-2.
Experiment [16] concerns SK-MEL-5.
Experiment [17] has as its system SNB-75.
Experiment [18] deals with TK-10.
The test system of experiment [19] is UACC-62.

As to `COC1=C(OC)C(=O)C(Sc2ccc3ccccc3c2)=CC1=O`, the GI50 in [1] was 14.7 µM (inactive); in experiment [2], 12 µM (inactive); in [3], 14.7 µM (inactive); in [4], 11.6 µM (inactive); in experiment [5], 4.58 µM (inactive); in experiment [6], 19 µM (inactive). Moreover, the GI50 in experiment [7] is 14.9 µM (inactive); in experiment [8] it was 11.9 µM (inactive); in experiment [9], 1.82 µM (inactive); in experiment [10], 10.4 µM (inactive); in [11], 10 µM (inactive); in experiment [12], 0.678 µM (active). The GI50 in [13] was 9.86 µM (inactive); in experiment [14] it was 16.3 µM (inactive); in experiment [15] it was 13.6 µM (inactive); in experiment [16] it was 3.1 µM (inactive); in [17] it was 12.8 µM (inactive); in experiment [18] it was 12.2 µM (inactive). Further, the GI50 in experiment [19] is 7.64 µM (inactive).

On to `CCN(CC)CCN(C)c1ccc(CO)c2c1c(=O)c1ccccc1[s+]2[O-]` (stereo not given), for which the GI50 was 10.7 µM (inactive) in experiment [1]; 11.3 µM (inactive) in experiment [2]; 13.2 µM (inactive) in experiment [3]; 1.43 µM (inactive) in experiment [4]; 1.88 µM (inactive) in [5]; 8.89 µM (inactive) in [6]. Moreover, the GI50 in experiment [7] is 12 µM (inactive); in experiment [8] it was 11.9 µM (inactive); in experiment [9], 2.02 µM (inactive); in experiment [10], 1.8 µM (inactive); in experiment [11], 13.7 µM (inactive); in [12] it was 2.83 µM (inactive). Also, the GI50 was 16.5 µM (inactive) in [13]; 5.05 µM (inactive) in [14]; 19.9 µM (inactive) in experiment [15]; 2.45 µM (inactive) in experiment [16]; 14.8 µM (inactive) in [17]; 16.9 µM (inactive) in [18]. Also, the GI50 in [19] was 7.06 µM (inactive).

Regarding `CN(C)CC1CC/C(=C\c2ccc(Cl)c(Cl)c2)C1=O` (stereo not given), the GI50 in [1] is 30.2 µM (inactive); in experiment [2] it was > 100 µM (inactive); in experiment [3] it was 14.8 µM (inactive); in [4], > 40.8 µM (inactive); in [5], 24.3 µM (inactive); in experiment [6], 17.7 µM (inactive). The GI50 in experiment [8] was > 62.5 µM (inactive); in [9] it was 6.38 µM (inactive); in [10], 25.6 µM (inactive); in [12], 1.95 µM (inactive); in experiment [13], 31.6 µM (inactive); in experiment [14], 39.3 µM (inactive). Further, the GI50 is > 45.1 µM (inactive) in [15]; 45.7 µM (inactive) in experiment [16]; > 41.7 µM (inactive) in [17]; 13.2 µM (inactive) in [18]; 17.6 µM (inactive) in [19].

As for `CN(C)CCCNC(=O)c1cccc2nc3ccccc3nc12`, the GI50 in experiment [1] was 16 µM (inactive); in [2], 12.2 µM (inactive); in experiment [3], > 36.1 µM (inactive); in experiment [4] it was 14.8 µM (inactive); in [5], 4.83 µM (inactive); in [6], 50.4 µM (inactive). The GI50 in experiment [8] is 4.42 µM (inactive); in experiment [9], 26.6 µM (inactive); in experiment [10], 12.6 µM (inactive); in [12] it was 20.1 µM (inactive); in experiment [13], 0.32 µM (active); in experiment [14], 19.2 µM (inactive). Further, the GI50 in experiment [15] is 14.8 µM (inactive); in experiment [16] it was > 54 µM (inactive); in experiment [17] it was 35.8 µM (inactive); in [18], 27.7 µM (inactive); in [19], 24.1 µM (inactive).

On to `CCOC(=O)COS(=O)(=O)C(F)(F)F`, for which the GI50 in experiment [1] was > 100 µM (inactive); in [2] it was > 100 µM (inactive); in [3], > 100 µM (inactive); in [4] it was > 100 µM (inactive); in experiment [5], 34.5 µM (inactive); in experiment [6], > 100 µM (inactive). The GI50 is > 100 µM (inactive) in [8]; > 100 µM (inactive) in experiment [9]; > 100 µM (inactive) in [10]; 23.9 µM (inactive) in experiment [12]; 60.4 µM (inactive) in experiment [13]; > 100 µM (inactive) in experiment [14]. Besides, the GI50 in [15], in [16], in experiment [17], in experiment [18] and in experiment [19] was > 100 µM (inactive) throughout.

`Cc1[nH]c2ncn3[nH]c(=S)nc3c2c1Cc1ccccc1`: the GI50 in experiment [1] is > 100 µM (inactive); in experiment [2], > 100 µM (inactive); in experiment [3] it was > 100 µM (inactive); in experiment [4], 92.5 µM (inactive); in experiment [5], > 100 µM (inactive); in experiment [6], > 100 µM (inactive). In addition, the GI50 in [7] was 62.7 µM (inactive); in [8] it was > 100 µM (inactive); in [9], 72.4 µM (inactive); in experiment [10], > 100 µM (inactive); in [11], > 100 µM (inactive); in experiment [13], > 100 µM (inactive). Also, the GI50 in experiment [14] was > 100 µM (inactive); in experiment [15], > 100 µM (inactive); in experiment [16] it was > 100 µM (inactive); in [17] it was 25.2 µM (inactive); in experiment [18], > 100 µM (inactive); in [19], > 100 µM (inactive).

Turning to `O=C(Cc1ccccc1)N/N=C(/c1nc2ccc([N+](=O)[O-])cc2nc1O)C(O)c1ccco1` (stereo not given), the GI50 was > 100 µM (inactive) in [1]; > 100 µM (inactive) in experiment [2]; 60.8 µM (inactive) in experiment [3]; > 100 µM (inactive) in experiment [4]; > 100 µM (inactive) in [5]; > 100 µM (inactive) in experiment [6]. For the same molecule, the GI50 was > 100 µM (inactive) in [8]; 12.6 µM (inactive) in experiment [9]; > 100 µM (inactive) in experiment [10]; > 100 µM (inactive) in [12]; > 100 µM (inactive) in [13]; > 100 µM (inactive) in [14]. The GI50 in experiment [15] is > 100 µM (inactive); in experiment [16], 66.4 µM (inactive); in experiment [17] it was > 100 µM (inactive); in experiment [18], > 100 µM (inactive); in experiment [19], > 100 µM (inactive).

In the case of `CC(=O)O[C@H]1CC[C@@]2(C)C(=C[C@H](c3ccc(O)cc3)[C@H]3[C@@H]4CC[C@H](OC(C)=O)[C@@]4(C)CC[C@@H]32)C1`, the GI50 in [1] was 0.51 µM (active); in [2], 16.3 µM (inactive); in experiment [3] it was 18.6 µM (inactive); in experiment [4], 20.5 µM (inactive); in [5], 15.8 µM (inactive); in experiment [6], 34.4 µM (inactive). The GI50 is 17.9 µM (inactive) in experiment [8]; 16.9 µM (inactive) in [10]; 14.3 µM (inactive) in [11]; 14 µM (inactive) in experiment [12]; 19 µM (inactive) in experiment [13]; 20.2 µM (inactive) in experiment [15]. Also, the GI50 in [16] is 11.4 µM (inactive); in experiment [17], 24.7 µM (inactive); in experiment [18], 32.3 µM (inactive); in experiment [19], 10.4 µM (inactive).
